# From ChEMBL document CHEMBL4715697, “Synthesis and biological activity of benzamide DNA minor groove binders” (2016)
# Legend:
# Assay type in all cases: functional
# Conditions in all cases: read-out: Activity
# MCF7 = experiment: Growth inhibition of human MCF7 cells assessed as cell growth at 0.1 uM incubated for 48 hrs by sulforhodamine B assay relative to control
# SF-268 = experiment: Growth inhibition of human SF-268 cells assessed as cell growth at 0.01 uM incubated for 48 hrs by sulforhodamine B assay relative to control
# OVCAR-4 = experiment: Growth inhibition of human OVCAR-4 cells assessed as cell growth at 100 uM incubated for 48 hrs by sulforhodamine B assay relative to control
# HOP-92 = experiment: Growth inhibition of human HOP-92 cells assessed as cell growth at 10 uM incubated for 48 hrs by sulforhodamine B assay relative to control
Structure (SMILES),growth at 0.1 µM (MCF7),growth at 0.01 µM (SF-268),growth at 100 µM (OVCAR-4),growth at 10 µM (HOP-92)
CC(=O)Nc1cc(CO[Si](C)(C)C(C)(C)C)cc(NC(=O)c2ccc(C(=O)Nc3cccc(NC(=O)CCCN(C)C)c3)cc2)c1,101%,99%,78%,–
CC(=O)Nc1cc(CCl)cc(NC(=O)c2ccc(C(=O)Nc3cccc(NC(=O)CCCN(C)C)c3)cc2)c1,87%,100%,89%,–
CC(=O)Nc1cc(CO)cc(NC(=O)c2ccccc2)c1,–,–,–,96.3%
